Test results: patent publication US20260125426A1, “CYCLIC CELL-PENETRATING PEPTIDES AND USES THEREOF” (Ohio State Innovation Foundation, priority 2022, published 2026)
Several values for one entry are separate records, joined by “and”; a condition that tells them apart may be missing. Equal values may be shown once.

Legend:
[1] = Proteolytic stability in 25% human serum (UPLC-MS); type: in vitro ADME; details: 100 μM peptide, 25% human serum in PBS, 37° C.; read-out: Serum t1/2
Method: Proteolytic Stability of BCP4, BCP16, and pBCP427-4. BCPs (100 μM) were incubated in 25% human serum diluted in phosphate-buffered saline for 24 h at 37° C. One hundred-μL aliquots were withdrawn from the mixture at various time points and mixed with 200 μL of 1:1 (v/v) 15% trichloroacetic acid in methanol and acetonitrile. The samples were centrifuged for 5 min in a microcentrifuge and stored at 4° C. until analysis by UPLC-MS equipped with a C-18 column. The column was eluted with a linear gradient of 5-100% acetonitrile in water containing 0.1% TFA over 7.5 min and the eluant was monitored at 214 nm. The area underneath the peak for any remaining BCP was integrated and compared to that at time 0 and the percentage of remaining BCP was plotted as a function of the incubation time. When integration of the UV absorbance was not possible due to overlapping of the peptide signal with that of serum proteins, the signal abundance from the mass spectrum was used to estimate the % peptide remaining.
Proteolytic Stability of pBCP427-4 and pBCP427-4Ala. BCPs (100 μM) were incubated in 25% human serum diluted in phosphate-buffered saline for 24 h at 37° C. […] The column was eluted with a linear gradient of 5-100% acetonitrile in water containing 0.1% TFA over 7.5 min and the eluant was monitored at 214 nm.

HeLa cells [2] = experiment: Flow cytometry of HeLa cells, cytosolic entry of NF-labeled peptides; type: cell-based; details: for MFI^NF (Cytosolic Entry): 1% FBS, relative to CPP12 (100%)
Method: Flow cytometry. HeLa cells were cultured in 12-well plates (1.5×10^5 cells/well) overnight. The following day, cells were incubated with 5 μM fluorescently labeled peptide for 2 h in DMEM supplemented with 1% FBS and 1% antibiotic solution. DMSO was used as a negative control. After incubation, cells were detached from plate with 350 μL of 0.25% Trypsin-EDTA solution, diluted with Dulbecco's phosphate buffered saline (DPBS), and pelleted at 300 g for 5 min. Cells were washed twice with DPBS, resuspended in DPBS, and analyzed on a BD FACS LSR II flow cytometer.
To evaluate their cell entry efficiencies, the BCPs and pBCPs were labeled with tetramethylrhodamine (TMR) or naphthofluorescein (NF) on a C-terminal lysine residue (FIGS. 2A, 2B, and 4). […] The labeled peptides were purified again by reversed-phase HPLC and their authenticity was confirmed by high-resolution mass spectrometry.
HeLa cells were treated with 5 μM dye-labeled BCPs (or pBCPs), CPP12, Tat, or DMSO (equal volume) for 2 h at 37° C., washed to remove any peptides in the medium, and analyzed by flow cytometry. The mean fluorescence intensity (MFI) value of TMR (which is pH insensitive) reflects the total amount of CPP inside the HeLa cells (total cellular uptake). On the other hand, NF is a pH sensitive dye, having an apparent pKa of 7.8. NF is unprotonated and fluorescent inside the neutral environment of the cytosol (and nucleus) but is nearly completely protonated and nonfluorescent in the acidic environments of endosomes and lysosomes. Thus, the MFI value of NF provides a convenient estimate of the peptides that have reached the cytosol.
Note that cell entry assays were performed by treating HeLa cell with 2 μM naphthofluorescein (NF)-labeled peptide for 2 h at 37° C. Under this condition, the BCPs enter the cell almost exclusively by endocytosis and endosomal escape. A small fraction of the CPP12^NF-treated cells (˜10%) underwent direct translocation of CPP12^NF; this fraction of highly fluorescent cells was not included in the data analysis. The cellular entry of pBCP427-4 was confirmed by live-cell confocal microscopy (FIG. 6).
BCP16a, BCP16b, and pBCP427-4a were labeled with NF and their cytosolic entry efficiencies were assessed by flow cytometry analysis of HeLa cells after treatment with 2 μM peptide at 37° C. for 2 h. […] CPP12 was previously shown to be highly sensitive to serum proteins (Buyanova, M., et al., (2022). Discovery of a Cyclic Cell-Penetrating Peptide with Improved Endosomal Escape and Cytosolic Delivery Efficiency. Molecular pharmaceuties, 19 (5). 1378-1388).

NIH 3T3 cells = experiment: Confocal microscopy of NIH 3T3 cells; type: cell-based; details: 2 μM peptide, 37° C., 2 h
Method: The cytosolic entry efficiencies of CPP12, BCP16a, BCP16b, and pBCP427-4a were also assessed by confocal microscopy of NIH 3T3 cells after treatment with 2 μM peptide at 37° C. for 2 h.

HEK293T cells = experiment: Cytotoxicity, Promega CellTiter-Glo 2.0 assay, HEK293T; type: cell-based; details: 72 h, read-out: IC50 (concentration at which 50% of cells are nonviable)
Method: (§1) Cytotoxicity of BCPs. The cytotoxicity of pBCP427-4 and BCP16 was tested 20) against HeLa and HEK293T cell lines by using Promega's Cell-Glo assay. The cells were seeded in a 96-well plate (5000 cells/well) in 100 μL of DMEM supplemented with 10% FBS and 1% penicillin/streptomycin. The following day. 10 μL of peptide of various concentrations was added to the cells. A row of wells was treated with DMSO as a control. After 72 h, all wells were treated with an equal volume (110 μL) of Promega CellTiter-Glo 2.0 assay solution and shaken for 30 min. Luminescent signal was measured on a Tecan Infinite Pro plate reader.

HeLa cells [3] = experiment: Cytotoxicity, Promega CellTiter-Glo 2.0 assay, HeLa; type: cell-based; details: 72 h, read-out: IC50 (concentration at which 50% of cells are nonviable)
Method: as §1

HeLa cells [4] = experiment: Live-cell confocal microscopy of HeLa cells; type: cell-based
Method: Confocal microscopy. HeLa cells (5×10^5 cells/mL in 300 μL volume) were cultured overnight in DMEM (10% FBS, 1% antibiotic solution) in a Grenier Bio-One 35/10 mm glass-bottomed microwell dish with four compartments. The following day, cells were incubated with 5 μM fluorescently labeled peptide for 2 h in phenol-red free DMEM (1% FBS, 1% antibiotic solution) and washed with warm media prior to imaging. Cells were imaged on a Nikon A1R live-cell confocal laser scanning microscope (ECLIPSE Ti-E automated, inverted) equipped with a 100× oil objective (1.45 N.A.) and a heated chamber (37° C.) supplied with 5% CO2. TMR-labeled peptides were imaged by excitation with a λEx of 561 nm. Differential interference contrast (DIC) images were obtained to validate the morphology of cells.
The cellular entry of BCP1-3 was further confirmed by live-cell confocal microscopy. HeLa cells were incubated with 5 μM TMR-labeled peptide for 2 h in the presence of 1% FBS in media. The cells were washed twice with fresh media and imaged without fixation.
To assess cellular delivery by confocal microscopy, HeLa cells were cultured overnight in a 4-well, 35-mm glass bottom microscope dish at a density of 50,000 cells/mL (300 μL per well). The following day, the cells were washed twice with DPBS and incubated with 5 μM protein for 4 h in phenol red free DMEM with 1% FBS. […]

[5] = test system: intracellular Keap1-Nrf2 interaction; experiment: ARE reporter-HepG2 luciferase assay of CPP/BCP-K1 conjugates; type: cell-based; details: ARE-Reporter HepG2 cells, 10 μM peptide, 18 h
Method: Cytosolic Delivery of Peptidyl Cargo. […] An important role of Nrf2-ARE pathway in the cellular defense mechanism. Journal of biochemistry and molecular biology, 37(2), 139-1438). Under basal conditions, Nrf2 interacts with Keap1 and is retained in the cytosol or degraded by the proteasome. However, upon blocking the Keap1-Nrf2 interaction, Nrf2 accumulates and translocates into the nucleus, inducing the expression of luciferase.
One hundred μL of ARE-Reporter Hep G2 cells were seeded in a 96-well plate at 5000 cells/well in minimum essential media supplemented with 10% FBS and 1% penicillin/streptomycin. The following day, 10 μL of peptide of various concentrations was added to the cells to give final concentrations of 0.625-10 μM. Cells treated with DMSO were used as a control. After 18 h, the cells were treated with an equal volume (110 μL) of BPS bioscience ONE-Step luciferase assay solution and shaken for 30 min. The luminescent signal was measured on a Tecan Infinite Pro plate reader.

Keap1 = Keap1 (Homo sapiens, UniProt Q14145); details: read-out: KD for Keap1; cited from earlier work
Keap1, sequence (Q14145 whole entry, species assumed): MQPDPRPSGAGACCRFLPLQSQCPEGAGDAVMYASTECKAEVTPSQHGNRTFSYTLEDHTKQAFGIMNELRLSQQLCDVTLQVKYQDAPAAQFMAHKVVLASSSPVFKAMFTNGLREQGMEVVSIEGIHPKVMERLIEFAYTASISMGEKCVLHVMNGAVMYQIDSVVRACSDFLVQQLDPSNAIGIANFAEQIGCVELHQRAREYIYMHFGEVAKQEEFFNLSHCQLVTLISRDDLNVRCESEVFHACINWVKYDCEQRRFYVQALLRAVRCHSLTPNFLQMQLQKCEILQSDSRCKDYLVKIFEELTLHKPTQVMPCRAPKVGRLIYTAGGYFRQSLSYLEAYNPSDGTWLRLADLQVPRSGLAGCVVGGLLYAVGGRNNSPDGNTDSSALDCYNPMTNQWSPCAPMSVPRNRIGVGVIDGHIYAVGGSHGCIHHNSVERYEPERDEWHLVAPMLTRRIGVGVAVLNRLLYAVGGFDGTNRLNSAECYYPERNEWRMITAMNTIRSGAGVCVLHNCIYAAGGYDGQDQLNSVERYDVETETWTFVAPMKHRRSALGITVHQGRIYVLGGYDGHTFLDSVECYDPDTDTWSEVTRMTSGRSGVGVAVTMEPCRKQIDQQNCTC

[6] = 2 μM NF-labeled peptide, 2 h, 37° C.

Compound: CC(=O)N[C@@H](Cc1ccc(O)cc1)C(=O)NCC(=O)N[C@@H](CCCNC(=N)N)C(=O)N[C@@H](CCCCN)C(=O)N[C@@H](CCCCN)C(=O)N[C@@H](CCCNC(=N)N)C(=O)N[C@@H](CCCNC(=N)N)C(=O)N[C@@H](CCC(N)=O)C(=O)N[C@@H](CCCNC(=N)N)C(=O)N[C@@H](CCCNC(=N)N)C(=O)N[C@@H](CCCNC(=N)N)C(=O)NCCOCCOCC(=O)N[C@@H](CCCCNC(=O)c1ccc2c(c1)C(=O)OC21c2ccc3cc(O)ccc3c2Oc2c1ccc1cc(O)ccc21)C(N)=O [Tat]
- half-life at 100 μM [1]: < 30 min

Compound: Ac-cwsnwfcfqrrc [pBCP427-4a]
- MFI^NF (Cytosolic Entry) (HeLa cells [2]; [6]): 33% and 33 ± 1%
- cytosolic entry efficiency in the presence of 10% FBS (HeLa cells [2]; 2 μM NF-labeled peptide, 2 h, 37° C., 10% FBS, relative to CPP12): 85%
- cytosolic entry by fluorescence intensity, compared with CPP12 (NIH 3T3 cells): less active than CPP12

Compound: CWSNWFCFQRRC [pBCP427-4]
- IC50 (HEK293T cells): 16 µM
- IC50 (HeLa cells [3]): > 50 µM
- cellular entry seen by live-cell confocal microscopy (HeLa cells [4]; 2 or 5 μM TMR-labeled peptide, 2 h, 37° C.): confirmed
- MFI^NF (Cytosolic Entry) (HeLa cells [2]; [6]): 189% and 189 ± 6%
- improvement of cytosolic entry efficiency by bismuth cyclization (HeLa cells [2]; 2 μM, pBCP427-4 vs pBCP427-4Ala): ~10 fold

Compound: HS-CH2-CO-rRrRCΦ(Bta)φC [BCP16]
- IC50 (HEK293T cells): 14 µM
- IC50 (HeLa cells [3]): 49 µM

Compound: cyclo(GQLDPETGEFL [K1]
- induction of luminescence signal [5]: did not
- Kd (Keap1): 18 nM

Compound: pBCP427-4-SEP: fusion protein of pBCP427-4 at the N-terminus of superecliptic-pHluorin (SEQ ID NO: 89) (MGSSGSSCWSNWFCFQRRC)
- GFP fluorescence inside the cell (protein delivery) (HeLa cells [4]; 5 μM protein, 4 h, 1% FBS): intense GFP fluorescence inside the cell
